In patent US7354911B2, “1,3-benzodioxol compound and use of same” (Sumitomo Chemical Company, Limited, priority 2006, dated 2008):

Test system: Musca domestica
Experiment: Topical application of acetone solution to female adult Musca domestica, mortality after 24 hours
Assay type: in vivo
Settings: 0.5 μL acetone solution on back of chest region, 25° C.
Experimental: After mixing the present compounds (1), (2), (3), (4), (5), and (6) with d-allethrin respectively, acetone solutions containing each mixture with the respective prescribed concentrations (w/v) listed in Table 2 were prepared. An adult Musca domestica was applied with 0.5 μL of the acetone solution dropped on the back side of its chest region, transferred to a plastic cup having about 9 cm diameter and about 4.5 cm height, and then left at 25° C. with being fed by 5% of aqueous sugar solution. […] The number of the Musca domesticas contained in each cup was 10, and the test was repeated twice.
Furthermore, after preparing acetone solutions containing each of the present compounds (1), (2), (3), (4), (5), and (6) and d-allethrin in the respective prescribed concentrations (w/v) listed in Table 2, a test was conducted as the same manner mentioned above.
For comparison, with using 4,5-methylenedioxy-2-propylphenyl2-butoxyethyl ether (hereinafter, referred to as a comparative compound)
[drawing 16] in place of the present compounds, a test was conducted in the same manner.

[1] = test compound 1.25 % (w/v) alone, d-allethrin 0 % (w/v)
[2] = test compound 1.25 % (w/v) mixed with d-allethrin 0.25 % (w/v)

## CCCCOCCOc1cc2c(cc1CCC)OCO2 [Comparative compound, 4,5-methylenedioxy-2-propylphenyl2-butoxyethyl ether, reference compound]
[1]
  mortality ratio: 0%
[2]
  mortality ratio: 55%

## C=CCc1cc2c(cc1OCCOC)OCO2 [The present compound (1), 5-(2-methoxyethoxy)-6-(2-propenyl)-1,3-benzodioxol]
[1]
  mortality ratio: 0%
[2]
  mortality ratio: 100%

## CCCc1cc2c(cc1OCCOC)OCO2 [The present compound (2), 5-(2-methoxyethoxy)-6-propyl-1,3-benzodioxol]
[1]
  mortality ratio: 0%
[2]
  mortality ratio: 90%

## C=CCc1cc2c(cc1OCCOCC)OCO2 [The present compound (3), 5-(2-ethoxyethoxy)-6-(2-propenyl)-1,3-benzodioxol]
[1]
  mortality ratio: 0%
[2]
  mortality ratio: 100%

## CCCc1cc2c(cc1OCCOCC)OCO2 [The present compound (4), 5-(2-ethoxyethoxy)-6-propyl-1,3-benzodioxol]
[1]
  mortality ratio: 0%
[2]
  mortality ratio: 100%

## C=CCc1cc2c(cc1OCCOCCC)OCO2 [The present compound (5), 5-{2-(propyloxy)ethoxy}-6-(2-propenyl)-1,3-benzodioxol]
[1]
  mortality ratio: 0%
[2]
  mortality ratio: 90%

## CCCOCCOc1cc2c(cc1CCC)OCO2 [The present compound (6), 5-{(2-propyloxy)ethoxy}-6-propyl-1,3-benzodioxol]
[1]
  mortality ratio: 0%
[2]
  mortality ratio: 80%

## C=CCC1=C(C)C(OC(=O)C2C(C=C(C)C)C2(C)C)CC1=O (stereo not drawn) [d-allethrin, reference compound]
d-allethrin 0.25 % (w/v) alone, no test compound
  mortality ratio: 0%
